# Assays:
# [1] = molecular target: T1, Type-1 angiotensin II receptor (Oryctolagus cuniculus, UniProt P34976); test: pA2 value determined in vitro against angiotensin II receptor, type 1 using rabbit aortic rings; details: read-out: pA2 (converted)
# T1 sequence (P34976 whole entry): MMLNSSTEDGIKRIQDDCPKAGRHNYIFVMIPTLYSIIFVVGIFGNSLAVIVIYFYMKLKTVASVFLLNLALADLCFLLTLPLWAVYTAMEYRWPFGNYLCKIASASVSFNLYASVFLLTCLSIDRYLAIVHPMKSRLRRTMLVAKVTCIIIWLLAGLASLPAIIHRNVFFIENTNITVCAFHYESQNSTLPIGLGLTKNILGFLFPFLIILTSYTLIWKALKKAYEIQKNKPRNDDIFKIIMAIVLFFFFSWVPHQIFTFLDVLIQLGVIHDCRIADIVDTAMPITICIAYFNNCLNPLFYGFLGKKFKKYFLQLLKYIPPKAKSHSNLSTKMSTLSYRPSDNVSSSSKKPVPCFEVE
# Rattus norvegicus = test: Dose (po) required to normalize blood pressure in renal artery-ligated rats; type: functional
Compound,Kb [1] [nM],Dose (Rattus norvegicus) [mg/kg]
CCc1nc(NCc2ccc(-c3ccccc3-c3nn[nH]n3)cc2)c2cc(OC)ccc2n1,2.63,–
CCCN(Cc1ccc(-c2ccccc2-c2nn[nH]n2)cc1)c1ncccc1C(=O)O,0.0501,0.3
CCCN(Cc1ccc(-c2ccccc2-c2nnn[nH]2)cc1)c1ncnc2cccc(C(=O)OC)c12,> 100,–
CCCCN(Cc1ccc(-c2ccccc2-c2nnn[nH]2)cc1)c1ncnc2cc(C(=O)O)ccc12,35.5,–
CCCCN(Cc1ccc(-c2ccccc2-c2nnn[nH]2)cc1)c1ncnc2nc[nH]c12,6.76,–
CCCN(Cc1ccc(-c2ccccc2-c2nnn[nH]2)cc1)c1ncnc2[nH]cnc12,12,–
CCCN(Cc1ccc(-c2ccccc2-c2nnn[nH]2)cc1)c1ncnc2c1ncn2CC(=O)O,7.24,–
CCCCN(Cc1ccc(-c2ccccc2-c2nnn[nH]2)cc1)c1ncnc2nccnc12,115,–
CCc1nc(NCc2ccc(-c3ccccc3-c3nn[nH]n3)cc2)c2ccccc2n1,2.95,–
CCCN(Cc1ccc(-c2ccccc2-c2nn[nH]n2)cc1)c1[nH]cnc2nncc1-2,339,–
CCCN(Cc1ccc(-c2ccccc2-c2nn[nH]n2)cc1)c1ncnc2cccc(OC)c12,> 100,–
CCCN(Cc1ccc(-c2ccccc2-c2nn[nH]n2)cc1)c1ncncc1C(=O)O,0.117,–
CCc1nc(NCc2ccc(-c3ccccc3-c3nnn[nH]3)cc2)c2ncn(C)c2n1,5.13,–
CCc1nc(N(C)Cc2ccc(-c3ccccc3-c3nn[nH]n3)cc2)c2cc(OC)ccc2n1,47.9,–
CCc1nc(NCc2ccc(-c3ccccc3-c3nn[nH]n3)cc2)c2c[nH]nc2n1,138,–
CCc1nc(NCc2ccc(-c3ccccc3-c3nn[nH]n3)cc2)c2cc(C(=O)O)ccc2n1,2.57,–
CCCCN(Cc1ccc(-c2ccccc2-c2nnn[nH]2)cc1)c1ncnc2ccc(C(=O)O)cc12,9.55,–
CCCCN(Cc1ccc(-c2ccccc2-c2nnn[nH]2)cc1)c1ncnc2cccnc12,776,–
CCCCN(Cc1ccc(-c2ccccc2-c2nnn[nH]2)cc1)c1ncnc2ccc(OC)cc12,47.9,–
CCCN(Cc1ccc(-c2ccccc2-c2nnn[nH]2)cc1)c1ncnc2ncn(CC(=O)O)c12,74.1,–
CCc1nc(NCc2ccc(-c3ccccc3-c3nnn[nH]3)cc2)c2c(OC)cccc2n1,8.51,–
CCCN(Cc1ccc(-c2ccccc2-c2nnn[nH]2)cc1)c1ncnc2cccc(C(=O)O)c12,> 100,–

# The next lines start with results.
Kb [1] [nM],Compound,Dose (Rattus norvegicus) [mg/kg]
9.33,CCCCN(Cc1ccc(-c2ccccc2-c2nn[nH]n2)cc1)c1ncnc2c1nc(C)n2C,–
72.4,CCCCN(Cc1ccc(-c2ccccc2-c2nn[nH]n2)cc1)c1ncnc2c1nc(C#N)n2C,–
> 100,CCCCN(Cc1ccc(-c2ccccc2-c2nn[nH]n2)cc1)c1ncnc2c1nc(S(C)(=O)=O)n2C,–
8.32,CCCCN(Cc1ccc(-c2ccccc2-c2nn[nH]n2)cc1)c1ncnc2c1ncn2C,–
29.5,CCCCN(Cc1ccc(-c2ccccc2-c2nn[nH]n2)cc1)c1ncnc2c1nc(O)n2C,–
10.7,CCCCN(Cc1ccc(-c2ccccc2-c2nn[nH]n2)cc1)c1ncnc2c1nnn2C,–
87.1,CCCCN(Cc1ccc(-c2ccccc2-c2nn[nH]n2)cc1)c1ncnc2ccc(O)cc12,–
97.7,CCCN(Cc1ccc(-c2ccccc2-c2nn[nH]n2)cc1)c1ncnc2oc(C)nc12,–
933,CCCN(Cc1ccc(-c2ccccc2-c2nn[nH]n2)cc1)c1ncnc2ncn(C)c12,–
> 100,CCCCN(Cc1ccc(-c2ccccc2-c2nnn[nH]2)cc1)c1ncnc2c1nc(C(N)=O)n2C,–
6.46,CCCCN(Cc1ccc(-c2ccccc2-c2nn[nH]n2)cc1)c1ncnc2ccc(C(=O)O)nc12,–
107,CCCCN(Cc1ccc(-c2ccccc2-c2nn[nH]n2)cc1)c1ncnc2ccc(C(=O)OC)cc12,–
151,CCCN(Cc1ccc(-c2ccccc2-c2nn[nH]n2)cc1)c1ncnc2c1ncn2Cc1ccccc1,–
30.2,CCCCN(Cc1ccc(-c2ccccc2-c2nnn[nH]2)cc1)c1ncnc2c1nc(CC)n2C,–
> 100,CCCCN(Cc1ccc(-c2ccccc2-c2nnn[nH]2)cc1)c1ncnc2c1nc(-c1ccccc1)n2C,–
41.7,CCCCN(Cc1ccc(-c2ccccc2-c2nn[nH]n2)cc1)c1ncnc2c1nc([S+](C)[O-])n2C (stereo not given),–
7.76,CCCCN(Cc1ccc(-c2ccccc2-c2nn[nH]n2)cc1)c1[nH]cnc2nc(C)nc1-2,–

# Source: ChEMBL document CHEMBL1127868, “Synthesis and In Vitro evaluation of fused ring heterocyle-containing angiotensin II antagonists” (Bioorg Med Chem Lett, 1994)
